Structures are written as SMILES.

Here are results for 27 molecules from patent US20070191336A1 (priority 2003, published 2007).

T1 sequence (Q16539 whole entry): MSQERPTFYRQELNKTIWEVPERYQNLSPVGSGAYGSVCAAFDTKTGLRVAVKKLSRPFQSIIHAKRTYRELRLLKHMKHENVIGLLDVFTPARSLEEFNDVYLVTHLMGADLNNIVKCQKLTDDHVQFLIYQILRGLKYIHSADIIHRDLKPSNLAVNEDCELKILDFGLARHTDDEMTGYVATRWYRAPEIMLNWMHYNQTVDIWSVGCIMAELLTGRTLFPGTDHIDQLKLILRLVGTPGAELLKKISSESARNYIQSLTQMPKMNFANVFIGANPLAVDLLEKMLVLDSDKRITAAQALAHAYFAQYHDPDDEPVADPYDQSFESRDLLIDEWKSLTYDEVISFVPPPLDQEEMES

One assay concerns the target T1, phospho p-38 alpha kinase (Homo sapiens, UniProt Q16539).
T1 construct: purchased Panvera
Nature of the assay: P-38 alpha kinase assay (spectrophotometric, pyruvate kinase/lactate dehydrogenase coupled). Type of assay: biochemical. The settings on record: Table 3; rates from […] to 2 h time frame. How it is done: In this assay, the oxidation of NADH was continuously measured spectrophometrically. […] The reaction was initiated by adding ATP. The absorption at 340 nm was monitored continuously for up to 4 hours at 30° C. on Polarstar Optima plate reader (BMG). The kinase activity (reaction rate) was calculated from the slope at the time frame from 1.5 h to 2 h.
For inhibition determinations, test compounds were incubated with the reaction mixture for ˜5 min before adding ATP to start the reaction. […] IC50 values were calculated from a series of % inhibition values determined at a range of concentrations of each inhibitor using Prism to process the data and fit inhibition curves. Generally, the rates obtained at the time frame of 1.5 h to 2 h were used for these calculations.
Consider `CC(C)(C)c1cc(NC(=O)Nc2ccccc2F)n(-c2cccc(CO)c2)n1` [Example 303, 1-{3-t-butyl-1-[3-(hydroxymethyl)phenyl]-1H-pyrazol-5-yl}-3-(2-fluorophenyl)urea], for which it took 89 nM to reach half-maximal inhibition (IC50).

In the case of `CC(C)(C)c1cc(NC(=O)Nc2ccccc2F)n(-c2ccc(CC(=O)O)cc2)n1` [Example 306, 2-(4-(3-t-butyl-5-(3-(2-fluorophenyl)ureido)-1H-pyrazol-1-yl)phenyl)acetic acid], inhibition was half-maximal at 58 nM (IC50).

For `CC(C)(C)c1cc(NC(=O)Nc2cccc(F)c2F)n(-c2ccc(CC(=O)O)cc2)n1` [Example 307, 2-(4-(3-t-butyl-5-(3-(2,3-difluorophenyl)ureido)-1H-pyrazol-1-yl)-phenyl)acetic acid], half-maximal inhibition (IC50) required 49 nM.

Consider `CC(C)(C)c1cc(NC(=O)Nc2cccc3ccccc23)n(-c2cccc(CN3C(=O)CCC3=O)c2)n1` [Example 308, 1-(3-t-butyl-1-{3-[(2,5-dioxopyrrolidin-1-yl)methyl]phenyl}-1H-pyrazol-5-yl)-3-(naphthalen-1-yl)urea], for which the midpoint of inhibition, the IC50, lay at 120 nM. Compared with the last molecule, the IC50 is about 2.4-fold higher.

With `COc1cccc(-n2nc(C(C)(C)C)cc2NC(=O)Nc2ccc(F)cc2)c1` [Example 309, 1-(3-t-butyl-1-(3-methoxyphenyl)-1H-pyrazol-5-yl)-3-(4-fluorophenyl)urea], 300 nM corresponded to half-maximal inhibition (IC50).

As for `COc1cccc(-n2nc(C(C)(C)C)cc2NC(=O)Nc2cccc(F)c2)c1` [Example 310, 1-(3-t-butyl-1-(3-methoxyphenyl)-1H-pyrazol-5-yl)-3-(3-fluorophenyl)urea], the 50% inhibitory concentration (IC50) (as a rule, the point on the concentration scale where inhibition reaches its midpoint) was determined as 130 nM. This IC50 lies about 2.3-fold lower than the previous one.

For `COc1cccc(-n2nc(C(C)(C)C)cc2NC(=O)Nc2cccc(Cl)c2)c1` [Example 311, 1-(3-t-butyl-1-(3-methoxyphenyl)-1H-pyrazol-5-yl)-3-(3-chlorophenyl)urea], the IC50 was found to be 182 nM.

The molecule `COc1cccc(-n2nc(C(C)(C)C)cc2NC(=O)Nc2cccc(Br)c2)c1` [Example 312, 1-(3-t-butyl-1-(3-methoxyphenyl)-1H-pyrazol-5-yl)-3-(3-bromophenyl)urea] displayed an IC50 of 349 nM. Against the preceding molecule, the IC50 is about 1.9-fold higher.

`COc1cccc(-n2nc(C(C)(C)C)cc2NC(=O)Nc2cccc(C)c2)c1` [Example 313, 1-(3-t-butyl-1-(3-methoxyphenyl)-1H-pyrazol-5-yl)-3-m-tolylurea] returned an IC50 of 250 nM.

For the molecule `COc1cccc(-n2nc(C(C)(C)C)cc2NC(=O)Nc2ccc(C(F)(F)F)cc2)c1` [Example 314, 1-(3-t-butyl-1-(3-methoxyphenyl)-1H-pyrazol-5-yl)-3-(4-(trifluoromethyl)phenyl)urea], the IC50 is 250 nM.

`COc1cccc(-n2nc(C(C)(C)C)cc2NC(=O)Nc2ccc(Cl)c(C(F)(F)F)c2)c1` [Example 316, 1-(3-t-butyl-1-(3-methoxyphenyl)-1H-pyrazol-5-yl)-3-(4-chloro-3-(trifluoromethyl)phenyl)urea] returned an IC50 of 420 nM.

With `COc1cccc(-n2nc(C(C)(C)C)cc2NC(=O)Nc2ccc(Cl)c(Cl)c2)c1` [Example 317, 1-(3-t-butyl-1-(3-methoxyphenyl)-1H-pyrazol-5-yl)-3-(3,4-dichlorophenyl)urea], the IC50 worked out at 68 nM.

`COc1cccc(-n2nc(C(C)(C)C)cc2NC(=O)Nc2ccc(Cl)cc2Cl)c1` [Example 318, 1-(3-t-butyl-1-(3-methoxyphenyl)-1H-pyrazol-5-yl)-3-(2,4-dichlorophenyl)urea] returned a concentration for half-maximal inhibition (IC50) of 670 nM.

For the molecule `COc1cccc(-n2nc(C(C)(C)C)cc2NC(=O)Nc2cc(Cl)cc(Cl)c2)c1` [Example 319, 1-(3-t-butyl-1-(3-methoxyphenyl)-1H-pyrazol-5-yl)-3-(3,5-dichlorophenyl)urea], half-maximal inhibition (IC50) was put at 320 nM. This IC50 is about 2.1-fold lower than that of the molecule before.

With `CC(C)(C)c1cc(NC(=O)Nc2ccc(Cl)cc2)n(-c2cccc(CN3C(=O)CCC3=O)c2)n1` [Example 320, 1-(3-t-butyl-1-{3-[(2,5-dioxopyrrolidin-1-yl)methyl]phenyl}-1H-pyrazol-5-yl)-3-(4-chlorophenyl)urea], the IC50 turned out to be 790 nM. Compared with the last molecule, the IC50 is about 2.5-fold higher.

In the case of `COc1cccc(-n2nc(C(C)(C)C)cc2NC(=O)Nc2ccc([N+](=O)[O-])cc2)c1` [Example 321, 1-(3-t-butyl-1-(3-methoxyphenyl)-1H-pyrazol-5-yl)-3-(4-nitrophenyl)urea], 520 nM corresponded to half-maximal inhibition (IC50).

As to `COc1cccc(-n2nc(C(C)(C)C)cc2NC(=O)Nc2ccc(C#N)cc2)c1` [Example 322, 1-(3-t-butyl-1-(3-methoxyphenyl)-1H-pyrazol-5-yl)-3-(4-cyanophenyl)urea], the IC50 amounted to 2020 nM.

The same assay, now with this note: read-out: % Inhibition @ concentration, Table 3; at 1 uM.
As for `CCOC(=O)C(C)Cc1cccc(-n2nc(C(C)(C)C)cc2NC(=O)Nc2cccc3ccccc23)c1` (racemic) [Example 200], the inhibition at 1 µM worked out at 73%.

Still in this assay, the particulars now being: read-out: % Inhibition @ concentration, Table 3; at 10 uM.
Turning to `CC(C)(C)c1cc(NC(=O)Nc2ccc(F)cc2)n(-c2cccc(CCC(=O)O)c2)n1` [Example 146, 3-(3-{3-t-butyl-5-[3-(4-fluoro-phenyl)-ureido]-pyrazol-1-yl}-phenyl)-propionic acid], the inhibition at 10 µM is 9%.

For `CCOC(=O)CCc1cccc(-n2nc(C(C)(C)C)cc2NC(=O)Nc2ccc(OC)cc2)c1` [Example 147, 3-(3-{3-t-butyl-5-[3-(4-methoxy-phenyl)-ureido]-pyrazol-1-yl}-phenyl)-propionic acid ethyl ester], the inhibition at 10 µM came out at 27%.

As to `CC(C)(C)c1cc(NC(=O)c2nccc3ccccc23)n(-c2cccc(CCC(=O)O)c2)n1` [Example 150, 3-(3-{3-t-butyl-5-[(isoquinoline-1-carbonyl)-amino]-pyrazol-1-yl}-phenyl)-propionic acid], the inhibition at 10 µM was found to be 53%.

On to `CCOC(=O)CCc1cccc(-n2nc(C(C)(C)C)cc2NC(=O)c2ccc3ccccc3c2)c1` [Example 154, 3-(3-{3-t-butyl-5-[(naphthalene-2-carbonyl)-amino]-pyrazol-1-yl}-phenyl)-propionic acid ethyl ester], for which the inhibition at 10 µM amounted to 21%.

As for `CC(C)(C)c1cc(NC(=O)c2ccc3ccccc3c2)n(-c2cccc(CCC(=O)O)c2)n1` [Example 155], the inhibition at 10 µM amounted to 58%.

Consider `COc1cccc(-n2nc(C(C)(C)C)cc2NC(=O)Nc2cccc(C(F)(F)F)c2)c1` [Example 315, 1-(3-t-butyl-1-(3-methoxyphenyl)-1H-pyrazol-5-yl)-3-(3-(trifluoromethyl)phenyl)urea], for which the inhibition at 10 µM was 54%.

Still in this assay, the particulars now being: read-out: % inhibition @ concentration, Table 2; at 10 uM.
Consider `CC1(C(=O)NCc2cccc(-n3nc(C(C)(C)C)cc3NC(=O)Nc3ccc(Cl)cc3)c2)CC2(C)CC(C)(C1)C(=O)NC2=O` (stereo not drawn) [Example 10, 1,5,7-trimethyl-2,4-dioxo-3-aza-bicyclo[3.3.1]nonane-7-carboxylic acid 3-{3-t-butyl-5-[3-(4-chloro-phenyl)-ureido]-pyrazol-1-yl}benzylamide], for which the inhibition at 10 µM was determined as 83%.

As for `CC(C)(C)c1cc(NC(=O)Nc2cccc3ccccc23)n(-c2cccc(C(=O)N3C(=O)OC[C@H]3c3ccccc3)c2)n1` [Example 17, D-1-{5-tert-butyl-2-[3-(2-oxo-4-phenyl-oxazolidinyl-3-carbonyl)phenyl]-2H-pyrazol-3-yl}-3-(naphthalen-1-yl)urea], the inhibition at 10 µM came to 40%.

Take `CC(C)(C)c1cc(NC(=O)Nc2cccc3ccccc23)n(-c2cccc(C(=O)N3C(=O)OC[C@@H]3c3ccccc3)c2)n1` [Example 18, L-1-{5-tert-butyl-2-[3-(2-oxo-4-phenyl-oxazolidinyl-3-carbonyl)phenyl]-2H-pyrazol-3-yl}-3-(naphthalen-1-yl)urea]: the inhibition at 10 µM was 60%.
